The text below walks through data of EP4624482A1, “PYRIMIDOPYRIMIDINONE COMPOUND AND PHARMACEUTICAL COMPOSITION COMPRISING SAME” (Axceso Biopharma Co., Ltd., priority 2022, dated 2024).

Structures are written as SMILES. pEC50: −log10 of the molar value.

One test has as its system α-synuclein. The test is described as follows: α-synuclein expression in rotenone-treated differentiated SH-SY5Y dopaminergic neurons, western blot. Format: cell-based, human. As to conditions: differentiated dopaminergic neurons treated with rotenone. On the procedure:
To analyze the effect on the expression of tyrosine hydroxylase (TH) and α-synuclein as neuron-specific proteins, western blot was performed.
SH-SY5Y cell line was treated with retinoic acid and 12-O-tetradecanoylphorbol-13-acetate (TPA) to induce differentiation into TH-secreting neurons for 6 days.
Differentiated dopaminergic neurons were lysed in PRO-PREP (Intronbio), a cell lysis solution containing protease inhibitor cocktail (Gendepot), and electrophoresed in 10% SDS polyacrylamide gels at 20 µg/well. Transfer was performed using PVDF (Merck millipore) as a membrane, and tyrosine hydroxylase antibody, α-synuclein antibody (Cell signaling), and β-actin antibody (Santa Cruz) were used for reaction for more than 2 hours. Protein expression was detected by staining with ECL substrate (Biorad) for development and graphed using the image J program.

The subject of another test is SIRT1. The test is described as follows: SIRT1 expression in HUVECs by western blot. Type of test: cell-based, human. The following applies: 24 hours. The procedure: To determine the increase in SIRT1 expression by the compound of formula (1a-1) prepared in Example 1 above in human umbilical vein endothelial cells (HUVECs), HUVECs were seeded at 5 × 10^5/4 ml in a 60 mm cell culture dish using ECBM2 medium (Promocell) and stabilized for 12 hours in an incubator maintained at 37°C and 5% CO2, respectively.
The cells were then treated with 10 nM, 100 nM and 1000 nM of the compound of formula (1a-1) prepared in Example 1 above, respectively, and incubated for another 24 hours, and then SIRT1 expression was determined by western blot.

In another test the test system is TNF-α. The test is described as follows: Serum TNF-α after CLP treatment, ELISA. As to conditions: treated at 6 and 16 hours after CLP, serum at 18 hours. Format: in vivo, mouse. On the procedure:
After CLP treatment, the inflammatory cytokines TNF-α and IL-6 were analyzed by ELISA.
Specifically, after treating the compound of formula (1a-1) at 6 and 16 hours after CLP treatment, mouse blood was collected at 18 hours and allowed to stand at room temperature for 1 hour, then centrifuged at 3000 rpm for 10 minutes to obtain serum to analyze the amount of TNF-α and IL-6.

A further test has as its system SH-SY5Y cell lines. The test is described as follows: Proliferation of SH-SY5Y cells (Parkinson's disease cell model), EZ-cytox. Type of test: cell-based, human. The following applies: 5 days. The procedure:
A medium containing DMEM/F12 (Hyclone), 10% FBS (Hyclone), and 1% penicillin-streptomycin (Hyclone) was used, and the medium was replaced every two days after seeding on a T75 plate. Subculture was performed when the cell density was 80-90%.
Then, to determine the neuronal proliferation effect, the subcultured SH-SY5Y cells were seeded in 96 wells at 5 × 10^3 cells/well. After 1 day, the medium was replaced with a 5% FBS ratio, and the cells were treated with the compound of formula (1a-1) at concentrations serially diluted 2-fold from 500 nM to 15.6 nM and cultured for 5 days. The medium was replaced with 10% FBS containing the drug every other day. The culture medium with 10% FBS was used as a control. After 5 days, the amount of living cells was measured at 450 nm absorbance using EZ-cytox (DoGen) to compare the cell viability.

Test [1] has as its system APP/PS/Tau transgenic mice. The test is described as follows: Intestinal length in AD-induced animal model. As to conditions: 1 mg/kg intraperitoneally once every 3 days for 2 weeks. Type of test: in vivo. On the procedure:
In neurodegenerative diseases (AD and PD), the length of the intestine tends to decrease as the disease progresses, so we looked for changes in intestinal length in an AD-induced animal model.
APP/PS/Tau transgenic mice were used as an AD-induced animal model. The compound of formula (1a-1) was administered intraperitoneally once every 3 days at a concentration of 1 mg/kg to 12-week-old transgenic mice for 2 weeks, and the changes in intestinal length of the mice were measured after 1 and 4 weeks.

Test [2] deals with amyloid beta monomer (monomeric Aβ, mAβ). The test is described as follows: mAβ expression in mouse brain of AD-induced animal model, fluorescence microscopy. Format: in vivo, mice. The following applies: 1 mg/kg intraperitoneally once every 3 days for 2 weeks; brain sections at 1 week and 4 weeks after drug administration. The procedure: (§1) To determine the therapeutic effect on Alzheimer's Disease (AD), the effects on amyloid beta monomer (monomeric Aβ, mAβ) and Tau protein, which are biomarkers of AD, were analyzed in an AD-induced animal model.
(§2) APP/PS/Tau transgenic mice were used as an AD-induced animal model. The compound of formula (1a-1) was administered intraperitoneally once every 3 days at a concentration of 1 mg/kg to 12-week-old transgenic mice for 2 weeks, and the expression of mAβ and Tau proteins in the mouse brain was measured after 1 and 4 weeks. After anesthetizing the mouse, the cervical region was incised with a dissecting tool, and then the occipital region was incised to remove both sides of the skull. The brain was washed with phosphate buffered saline (PBS) and fixed with 4% paraformaldehyde (Sigma, St Louis, MO, USA) for 12 hours at 4°C. These were cut to a thickness of approximately 10 µm using a vibratome, and hippocampus and cortex sections were collected and placed in 24 wells. PBS was added to the wells containing the fixed tissue sections, and fluorescent nanoparticles (QD565, red fluorescence) conjugated with anti-amyloid antibodies and anti-Tau antibodies (Santa Cruz, USA) were added to each 2 µM, and reacted at 4°C for 12 hours. The expression of mAβ and Tau was confirmed by fluorescence microscopy.

The next test concerns Tau protein. The test can be described thus: Tau expression in mouse brain of AD-induced animal model, fluorescence microscopy. Format: in vivo, mice. As to conditions: 1 mg/kg intraperitoneally once every 3 days for 2 weeks; brain sections at 1 week and 4 weeks after drug administration. On the procedure:
as §1, §2

For test [3], the system named is MYSEC (murine yolk sac endothelial cell) cell lines. The test can be described thus: In vitro permeability of LPS-treated MYSEC cells (transwell, streptavidin-HRP). Format: cell-based. On the procedure:
Permeability was measured by an in vitro method using cell culture and in vivo method using Evans blue dye. To increase permeability, LPS was used in the in vitro method and CLP treatment was used in the in vivo method.
To measure permeability by an in vitro method, MYSEC (murine yolk sac endothelial cell) cell lines were used. MYSEC cell lines were placed in the top chamber of a trans well at 2.5×10^5 cells/well and treated with 300 ng of lipopolysaccharide (LPS) derived from Gram-negative bacteria in the presence of the compound of formula (1a-1) for 24 hours. The medium in the top chamber was replaced with 300 µl of serum-free medium containing 5 µl of streptoavidin-HRP. After 5 minutes, 20 µl of the medium in the lower chamber was taken and the activity of HRP was measured as absorbance at 450 nm.
To determine the mechanism by which the compound of formula (1a-1) improves permeability, the same experiment was performed by knocking down the SIRT1 protein in the MYSEC cell line.

For `CCCCCCCCCCCCCC[C@H]1OP(=O)(O)O[C@H]1[C@@H](N)CO.Cl` [formula (1a-1), (4S,5R)-4-((S)-1-amino-2-hydroxyethyl)-2-hydroxy-5-tetradecyl-1,3,2-dioxaphosphoran-2-oxide hydrochloride], the “expression of α-synuclein increased by rotenone” value in the test on α-synuclein is recorded as “decreased”. Further, the “expression of SIRT1” value with SIRT1 (10 nM) was “increases”. Further, the pEC50 in the test on SIRT1 (read-out: concentration (EC50) that increased the expression of SIRT1 by 50%) was approximately 8.00. Moreover, the “amount of inflammatory cytokine TNF-α” value in the test on TNF-α is given as “significantly decreased”. The “proliferation of nerve cells” value with SH-SY5Y cell lines (15.6 nM to 500 nM) was “increases with increasing concentrations”. For the same molecule, the “concentration of maximum proliferative potency” value with SH-SY5Y cell lines is listed as approximately 100 nM. The “length of the intestine at 4 weeks (6W) compared to 1 week (3W) after administration” value in test [1] is “longer”. Besides, the intestinal length entry in test [1] (compared to untreated AD-induced control mice) is given as “increased”. The “red fluorescence for mAβ” value in test [2] is reported as “negligible”. Further, the “red fluorescence for Tau” value in the test on Tau protein is listed as “negligible”. Moreover, the “effect on LPS-induced permeability after knockdown of the SIRT1 protein” value in test [3] (MYSEC cell line with SIRT1 knockdown, LPS) is listed as “does not show the effect”. Further, the LPS-induced increased permeability entry in test [3] (MYSEC cell line, 300 ng LPS, 24 hours) is “restores the LPS-induced increased permeability to normal”.
